Columns and labels:
TMEM = TMEM score by triple-stain immunohistochemistry in mouse breast tumors; format: in vivo
Text: This hypothesis was investigated in the following breast carcinoma models: (i) transgenic MMTV-PyMT mice bearing spontaneous breast tumors, (ii) FVB mice transplanted orthotopically with tumors from MMTV-PyMT donors, and (iii) two patient-derived xenografts (PDX), HT17 and HT33, developed previously in our laboratory (31). […] Treatment of all groups began at the early carcinoma stage (tumor size of ˜0.3 cm) when there is minimal or absent necrosis. It was decided to work with the early-stage PyMT mouse mammary carcinoma model because it more accurately reflects clinically relevant scenarios where most women present with small tumors of <2 cm (32).
(§1) Drug Administration. The following drugs were administered in mice: Paclitaxel was given at 10 mg/Kg i.v every 5 days for 2 weeks; Doxorubicin was given at 5 mg/Kg i.v. every 5 days for 2 weeks; Cyclophosphamide was given at 120 mg/Kg i.p. only once; Rebastinib was given at 10 mg/Kg per os, every 3-4 days for 4 weeks.
Animals and Animal Procedures. MMTV-PyMT mice were bred in-house at the Albert Einstein College of Medicine (AECOM). Generation of MMTV-PyMT Mena^−/− has been described previously (28). CFP- or Dendra2-labeled mammary carcinoma cells were generated on the FVB background by co-injection of Tg(MMTV-iCRE)1jwp together with Tg(PCAG-loxp-CATstop-loxp-CFP) or Tg(loxP-stop-loxP-PDendra2)jwp plasmids, respectively, by conventional methods in the Albert Einstein Transgenic Mouse Facility. All syngeneic transplantation models were generated through orthotopic transplantation of 1 mm×1 mm tumor chunks, using tumors of 1 cm-diameter from 12-16-week old MMTV-PyMT mena−/− or mena+/+ donor mice into 5-6 week-old FVB recipients. Tumor chunks were implanted on the fourth mammary pad on the left side. The generation of the ER^− HT17 and ER^+ HT33 patient-derived xenografts has been described previously (31). Animal handling and associated procedures were approved by the Institutional Animal Care and Use Committee (IACUC). Additional information is detailed in Supplementary Methods.
Histology and TMEM Immunohistochemistry. Breast tumors and lungs were isolated, rinsed in PBS, fixed in 10% neutral buffered formalin for 48 hours, dehydrated and embedded in paraffin. Sections (5 μm) were stained with H & E or TMEM triple-stain immunohistochemistry, as previously described (3).

circulating tumor cells = test: Circulating tumor cells per mL of blood; format: in vivo, mouse
Experimental: as §1
Circulating Tumor Cells. Mice were anesthetized with 3.5-4.5% isoflurane, and blood was taken from the right ventricle by heart puncture, using 25G needles coated with heparin. Erythrocytes were lysed, using 10 ml of 1×RBC lysis buffer (multi-species, eBioscience). Cancer cells were quantified, as previously described (31, 60).

Mena^INV [1] = test: Mena^INV protein expression by immunofluorescence in mouse tumors; format: in vivo; conditions: PyMT-spontaneous and HT17-xenograft models; p<0.0001
Text: To test this hypothesis, qRT-PCR analysis was first performed for total Mena (panMena), Mena11a and Mena^INV on formalin-fixed paraffin-embedded (FFPE) tumors from all mouse models. […] As shown in the specific Mena^INV IF, the pattern of Mena^INV expression in PyMT mice was heterogeneous (FIG. 4F), consistent with previous observations (40). […] In addition, there was an inverse correlation for the anti-metastatic Mena11a (p<0.01, […]).
(§2) Immunofluorescence. Slides were deparaffinized by melting at 60° C. in an oven equipped with a fan for 20 minutes, followed by 2× xylene treatment for 20 minutes. Slides were rehydrated and antigen retrieval was done in 1 mM EDTA (pH 8.0) or 1× citrate buffer (pH 6.0) (Diagnostic BioSystems) at 97° C. for 20 minutes in a conventional steamer. Endogenous peroxidase was blocked by using 0.3% hydrogen peroxide in water, followed by incubation of slides in a blocking buffer solution (10% FBS, 1% BSA, 0.0025% fish skin gelatin in 0.05% PBST) for 60 minutes at room temperature. […]

Mena^INV [2] = test: Mena^INV expression before and after NAC or paclitaxel in breast cancer patients; format: in vivo, human; conditions: qRT-PCR in FNA biopsies before and one week after second dose of weekly paclitaxel; n=5
Text: To further substantiate the translational importance of our preclinical data from PyMT and PDX mice receiving neoadjuvant paclitaxel into human breast cancer patients, we compared Mena^INV expression levels in Pre- and Post-NAC samples. […] Additionally, we analyzed Mena^INV expression by qRT-PCR in fine needle aspiration (FNA) biopsies taken before and one week after the second dose of weekly paclitaxel in an independent small cohort of patients (n=5).
as §2

breast cancer = conditions: addition of paclitaxel into preoperative NAC regimen; cited from earlier work
[3] = single agent vs vehicle, PyMT-transplantation and HT17 xenograft

## CC(=O)O[C@H]1C(=O)[C@@]2(C)[C@H]([C@H](OC(=O)c3ccccc3)[C@]3(O)C[C@H](OC(=O)[C@H](O)[C@@H](NC(=O)c4ccccc4)c4ccccc4)C(C)=C1C3(C)C)[C@]1(OC(C)=O)CO[C@@H]1C[C@@H]2O [paclitaxel]
TMEM; all experimental models tested, 10 mg/Kg every five days, three times, p<0.001
  TMEM score, fold higher compared to non-treated controls: 2- to 3 fold
TMEM; [3]
  overall TMEM score (TMEM assembly): significant increases
Circulating tumor cells; Mena^-/- PyMT-CFP transplants
  number of CTCs in the blood: failed to boost
Circulating tumor cells; all experimental models examined, p<0.05
  increase in circulating tumor cells (CTCs): at least 2 fold
Circulating tumor cells; [3]
  number of CTCs (TMEM activity): significant increases
Mena^INV [1]
  Mena^INV expression at the protein level: increased expression
Mena^INV [2]
  patients with increase of Mena^INV gene-expression: 4/5
Breast cancer
  overall survival: does not improve
  rate of pathologic complete response (pCR): significantly increases
